Measurements taken from US20240391936A1, “TETRAHYDROTHIENO PYRIDINE DERIVATIVES AS DDRS INHIBITORS” (CHIESI FARMACEUTICI S.P.A., priority 2021, published 2024).

Assays:
[1] = target: T1, DDR1 (Homo sapiens, UniProt Q08345); assay: DDR1 binding assay (LanthaScreen Europium Kinase Binding assay); design: purchased Carna Biosciences; details: binding assay, 5 nM DDR1, 20 nM Kinase Tracer 178; Ki from IC50 by Cheng-Prusoff; read-out: Ki DDR1
How it was run: (§1)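 Compounds incubated 1 h at room temperature with 5 nM kinase, Kinase Tracer 178 (20 nM for DDR1, 10 nM for DDR2) and 2 nM Eu-anti-GST antibody in pH 7.5 HEPES/MgCl2/EGTA/BRIJ35 buffer. TR-FRET 665/615 nm ratio read after 340 nm excitation; IC50 from 4-parameter fit, converted to Ki by Cheng-Prusoff.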

[2] = target: T1, DDR1; assay: DDR1 cell based assay (PathHunter U2OS DDR1 assay); design: host or cells: U2OS-DDR1 (PathHunter); details: U2OS-DDR1 cells, bovine Type II Collagen 20 μg/ml
How it was run: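 U2OS-DDR1 PathHunter cells preincubated 30 min with compound, then stimulated overnight at 37 °C with 20 μg/ml bovine type II collagen. Luminescent complementation signal read after 1 h detection at room temperature; normalized to vehicle (0%) and collagen-only (100%) controls, IC50 from variable-slope sigmoidal fit.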

[3] = target: T2, DDR2 (Homo sapiens, UniProt Q16832); assay: DDR2 binding assay (LanthaScreen Europium Kinase Binding assay); design: purchased Life Technologies; details: binding assay, 5 nM DDR2, 10 nM Kinase Tracer 178; Ki from IC50 by Cheng-Prusoff; read-out: Ki DDR2
T2 sequence (Q16832 22-855): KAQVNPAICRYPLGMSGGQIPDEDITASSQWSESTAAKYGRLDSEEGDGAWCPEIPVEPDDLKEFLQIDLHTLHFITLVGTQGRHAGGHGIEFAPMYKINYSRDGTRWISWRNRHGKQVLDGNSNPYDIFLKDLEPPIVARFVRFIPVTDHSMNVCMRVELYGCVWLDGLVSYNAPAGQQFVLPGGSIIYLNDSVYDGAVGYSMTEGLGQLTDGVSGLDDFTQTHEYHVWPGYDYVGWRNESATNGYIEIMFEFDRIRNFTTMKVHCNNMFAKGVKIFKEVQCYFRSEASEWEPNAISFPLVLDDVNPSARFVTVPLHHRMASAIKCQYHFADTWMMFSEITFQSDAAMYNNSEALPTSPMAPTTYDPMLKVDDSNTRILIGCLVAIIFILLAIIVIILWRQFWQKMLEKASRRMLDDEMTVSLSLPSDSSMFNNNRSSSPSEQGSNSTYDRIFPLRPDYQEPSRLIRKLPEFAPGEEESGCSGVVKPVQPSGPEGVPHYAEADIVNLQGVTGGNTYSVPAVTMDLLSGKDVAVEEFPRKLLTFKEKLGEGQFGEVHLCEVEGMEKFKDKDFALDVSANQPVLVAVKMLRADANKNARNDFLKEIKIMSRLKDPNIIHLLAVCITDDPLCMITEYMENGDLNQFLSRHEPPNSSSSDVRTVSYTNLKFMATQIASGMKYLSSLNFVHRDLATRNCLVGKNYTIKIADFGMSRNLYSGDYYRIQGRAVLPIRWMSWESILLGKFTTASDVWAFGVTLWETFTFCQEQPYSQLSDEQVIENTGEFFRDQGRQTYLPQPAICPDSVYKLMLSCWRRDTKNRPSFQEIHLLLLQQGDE
How it was run: as §1

T1 sequence (Q08345 19-913): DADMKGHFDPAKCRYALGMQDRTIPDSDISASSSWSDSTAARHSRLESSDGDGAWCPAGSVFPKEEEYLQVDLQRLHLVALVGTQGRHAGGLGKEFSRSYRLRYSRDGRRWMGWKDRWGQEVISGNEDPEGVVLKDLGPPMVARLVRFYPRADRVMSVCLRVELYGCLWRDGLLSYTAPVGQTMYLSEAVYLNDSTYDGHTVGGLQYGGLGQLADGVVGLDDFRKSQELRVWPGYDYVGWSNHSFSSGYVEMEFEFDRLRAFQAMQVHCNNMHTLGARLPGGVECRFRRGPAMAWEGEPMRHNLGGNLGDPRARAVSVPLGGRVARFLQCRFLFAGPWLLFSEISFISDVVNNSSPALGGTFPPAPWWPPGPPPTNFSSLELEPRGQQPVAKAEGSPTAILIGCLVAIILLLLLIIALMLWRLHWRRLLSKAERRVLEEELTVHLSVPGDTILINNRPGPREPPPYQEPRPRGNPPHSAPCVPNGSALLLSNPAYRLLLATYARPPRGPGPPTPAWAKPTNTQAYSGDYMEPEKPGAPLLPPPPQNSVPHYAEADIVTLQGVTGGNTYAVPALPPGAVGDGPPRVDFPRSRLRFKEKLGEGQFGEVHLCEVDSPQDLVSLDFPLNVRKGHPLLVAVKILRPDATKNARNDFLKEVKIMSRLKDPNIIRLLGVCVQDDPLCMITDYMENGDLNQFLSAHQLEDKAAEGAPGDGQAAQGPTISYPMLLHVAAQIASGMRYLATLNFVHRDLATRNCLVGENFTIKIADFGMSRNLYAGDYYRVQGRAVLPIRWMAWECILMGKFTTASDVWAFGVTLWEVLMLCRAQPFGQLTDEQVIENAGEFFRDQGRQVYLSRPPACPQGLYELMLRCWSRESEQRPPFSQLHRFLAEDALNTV

SMILES | Ki [1] [nM] | IC50 [2] [nM] | Ki [3] [nM]
Cc1n[nH]c2ncc(CN3CCc4c(C(=O)Nc5cc(C(C)(C)C)no5)csc4C3)cc12 [Example 147, N-(3-(tert-butyl)isoxazol-5-yl)-6-((3-methyl-1H-pyrazolo[3,4-b]pyridin-5-yl)methyl)-4,5,6,7-tetrahydrothieno[2,3-c]pyridine-3-carboxamide] | < 25 | < 25 | < 25
Cc1n[nH]c2ncc(CN3CCc4c(C(=O)Nc5cc(C6CC6)on5)csc4C3)cc12 [Example 148, N-(5-cyclopropylisoxazol-3-yl)-6-((3-methyl-1H-pyrazolo[3,4-b]pyridin-5-yl)methyl)-4,5,6,7-tetrahydrothieno[2,3-c]pyridine-3-carboxamide] | < 25 | < 25 | < 25
CN1CCN(c2n[nH]c3ncc(CN4CCc5c(C(=O)Nc6cncc(C(F)(F)F)c6)csc5C4)cc23)CC1 [Example 149, 6-((3-(4-methylpiperazin-1-yl)-1H-pyrazolo[3,4-b]pyridin-5-yl)methyl)-N-(5-(trifluoromethyl)pyridin-3-yl)-4,5,6,7-tetrahydrothieno[2,3-c]pyridine-3-carboxamide] | < 25 | 25 to 50 | < 25
O=C(Nc1cncc(C(F)(F)F)c1)c1csc2c1CCN(Cc1cnn3ccncc13)C2 [Example 154, 6-(pyrazolo[1,5-a]pyrazin-3-ylmethyl)-N-(5-(trifluoromethyl)pyridin-3-yl)-4,5,6,7-tetrahydrothieno[2,3-c]pyridine-3-carboxamide] | < 25 | 50 to 80 | < 25
O=C(Nc1cncc(C(F)(F)F)c1)c1csc2c1CCN(Cc1ncnc3[nH]ccc13)C2 [Example 155, 6-((7H-pyrrolo[2,3-d]pyrimidin-4-yl)methyl)-N-(5-(trifluoromethyl)pyridin-3-yl)-4,5,6,7-tetrahydrothieno[2,3-c]pyridine-3-carboxamide] | < 25 | 25 to 50 | < 25
CC(C)(C)c1cc(NC(=O)c2csc3c2CCN(Cc2cnc4ccnn4c2)C3)on1 [Example 156, N-(3-(tert-butyl)isoxazol-5-yl)-6-(pyrazolo[1,5-a]pyrimidin-6-ylmethyl)-4,5,6,7-tetrahydrothieno[2,3-c]pyridine-3-carboxamide] | < 25 | < 25 | < 25
Cc1n[nH]c2ncc(CN3CCc4c(C(=O)Nc5cc(CN6CC[C@@H](N(C)C)C6)cc(C(F)(F)F)c5)csc4C3)cc12 [Example 157, (R)—N-(3-((3-(dimethylamino)pyrrolidin-1-yl)methyl)-5-(trifluoromethyl)phenyl)-6-((3-methyl-1H-pyrazolo[3,4-b]pyridin-5-yl)methyl)-4,5,6,7-tetrahydrothieno[2,3-c]pyridine-3-carboxamide] | < 25 | 25 to 50 | 25 to 50
CN(C)[C@@H]1CCN(Cc2cc(NC(=O)c3csc4c3CCN(Cc3cnc5[nH]ccc5c3)C4)cc(C(F)(F)F)c2)C1 [Example 159, (R)-6-((1H-pyrrolo[2,3-b]pyridin-5-yl)methyl)-N-(3-((3-(dimethylamino)pyrrolidin-1-yl)methyl)-5-(trifluoromethyl)phenyl)-4,5,6,7-tetrahydrothieno[2,3-c]pyridine-3-carboxamide] | < 25 | 25 to 50 | < 25

Now from value to molecule:

Ki [1] [nM] | IC50 [2] [nM] | Ki [3] [nM] | SMILES
< 25 | 50 to 80 | < 25 | CN(C)[C@@H]1CCN(Cc2cc(NC(=O)c3csc4c3CCN(Cc3cnc5cnccn35)C4)cc(C(F)(F)F)c2)C1 [Example 160, (R)-N-(3-((3-(dimethylamino)pyrrolidin-1-yl)methyl)-5-(trifluoromethyl)phenyl)-6-(imidazo[1,2-a]pyrazin-3-ylmethyl)-4,5,6,7-tetrahydrothieno[2,3-c]pyridine-3-carboxamide]
< 25 | 25 to 50 | < 25 | CN(C)[C@@H]1CCN(Cc2cc(NC(=O)c3csc4c3CCN(Cc3cnc5ccnn5c3)C4)cc(C(F)(F)F)c2)C1 [Example 161, (R)-N-(3-((3-(dimethylamino)pyrrolidin-1-yl)methyl)-5-(trifluoromethyl)phenyl)-6-(pyrazolo[1,5-a]pyrimidin-6-ylmethyl)-4,5,6,7-tetrahydrothieno[2,3-c]pyridine-3-carboxamide]
< 25 | 25 to 50 | 25 to 50 | Cc1cccc2ncc(C(=O)N3CCc4c(C(=O)Nc5cc(CN6CC[C@@H](N(C)C)C6)cc(C(F)(F)F)c5)csc4C3)n12 [Example 162, (R)—N-(3-((3-(dimethylamino)pyrrolidin-1-yl)methyl)-5-(trifluoromethyl)phenyl)-6-(5-methylimidazo[1,2-a]pyridine-3-carbonyl)-4,5,6,7-tetrahydrothieno[2,3-c]pyridine-3-carboxamide]
< 25 | < 25 | < 25 | Cc1n[nH]c2ncc(CN3CCc4c(C(=O)Nc5cc(OCCN6CCCC6)cc(C(F)(F)F)c5)csc4C3)cc12 [Example 163, 6-[(3-methyl-1H-pyrazolo[3,4-b]pyridin-5-yl)methyl]-N-[3-(2-pyrrolidin-1-ylethoxy)-5-(trifluoromethyl)phenyl]-5,7-dihydro-4H-thieno[2,3-c]pyridine-3-carboxamide]
< 25 | < 25 | < 25 | O=C(Nc1cc(OCCN2CCCC2)cc(C(F)(F)F)c1)c1csc2c1CCN(Cc1cnc3[nH]ncc3c1)C2 [Example 164, 6-((1H-pyrazolo[3,4-b]pyridin-5-yl)methyl)-N-(3-(2-(pyrrolidin-1-yl)ethoxy)-5-(trifluoromethyl)phenyl)-4,5,6,7-tetrahydrothieno[2,3-c]pyridine-3-carboxamide]
< 25 | 50 to 80 | < 25 | CN1CC2(C1)CN(c1ccc3ncc(C(=O)N4CCc5c(C(=O)Nc6cccc(C(F)(F)F)c6)csc5C4)n3c1)C2 [Example 166, 6-(6-(6-methyl-2,6-diazaspiro[3.3]heptan-2-yl)imidazo[1,2-a]pyridine-3-carbonyl)-N-(3-(trifluoromethyl)phenyl)-4,5,6,7-tetrahydrothieno[2,3-c]pyridine-3-carboxamide]
< 25 | 25 to 50 | < 25 | CN1CC=C(c2ccc3ncc(C(=O)N4CCc5c(C(=O)Nc6cccc(C(F)(F)F)c6)csc5C4)n3c2)CC1 [Example 167, 6-(6-(1-methyl-1,2,3,6-tetrahydropyridin-4-yl)imidazo[1,2-a]pyridine-3-carbonyl)-N-(3-(trifluoromethyl)phenyl)-4,5,6,7-tetrahydrothieno[2,3-c]pyridine-3-carboxamide]
< 25 | 25 to 50 | < 25 | CN1CCN(c2ccc3ncc(C(=O)N4CCc5c(C(=O)Nc6cc(C(C)(C)C)no6)csc5C4)n3c2)CC1 [Example 168, N-(3-(tert-butyl)isoxazol-5-yl)-6-(6-(4-methylpiperazin-1-yl)imidazo[1,2-a]pyridine-3-carbonyl)-4,5,6,7-tetrahydrothieno[2,3-c]pyridine-3-carboxamide]
< 25 | < 25 | < 25 | Cn1nc(NC(=O)c2csc3c2CCN(Cc2cnc4[nH]ccc4c2)C3)cc1C(F)(F)F [Example 169, 6-((1H-pyrrolo[2,3-b]pyridin-5-yl)methyl)-N-(1-methyl-5-(trifluoromethyl)-1H-pyrazol-3-yl)-4,5,6,7-tetrahydrothieno[2,3-c]pyridine-3-carboxamide]
< 25 | 25 to 50 | < 25 | O=C(Nc1cccc(C(F)(F)F)c1)c1csc2c1CCN(C(=O)c1cnc3ccc(OCCN4CCOCC4)cn13)C2 [Example 170, 6-(6-(2-morpholinoethoxy)imidazo[1,2-a]pyridine-3-carbonyl)-N-(3-(trifluoromethyl)phenyl)-4,5,6,7-tetrahydro thieno[2,3-c]pyridine-3-carboxamide]
